Test results: US6683070B2, “Aqueous suspension with good redispersibility” (Senju Pharmaceutical Co., Ltd., priority 1997, dated 2004)

Legend:
[1] = Surface tension of aqueous suspension (Du Noüy tension meter K122); type: physicochemical
Description: (§1) Solutions containing a suspending agent in concentrations ranging from 0.000001 to 0.5 w/v % were first prepared. A test drug was added to the solutions to prepare aqueous suspensions. The surface tension of each aqueous suspension thus prepared was measured with the Du Noüy tension meter K122 (Krüss). The suspensions were then filled into 5 ml colorless polypropylene bottles and allowed to stand at 25° C. for 4 days. Each bottle was caused to spin (60 rpm) on the variable mix rotor VMR-5 (60 rpm, manufactured by Iuchi) and the time required for redispersion was measured. In addition, the condition of the redispersed particles was visually examined. As the suspending agent, hydroxypropylmethyl cellulose [Metolose 60SH (TC-5E); manufactured by Shin-Etsu Chemical Co., Ltd.; hereinafter abbreviated as HPMC], methylcellulose (Metolose SM-25; manufactured by Shin-Etsu Chemical Co., Ltd.; abbreviated as MC), or polyvinylpyrrolidone (K30; manufactured by BASF; abbreviated as PVP) was used. As the test drug, fluorometholone 0.05 w/v % or 0.1 w/v % or indomethacin 0.2 w/v % or 1.0 w/v % was used.

[2] = Redispersibility test: redispersion time and visual condition after standing at 25° C. for 4 days; type: physicochemical
Description: as §1

[3] = fluorometholone 0.05 w/v % suspension
[4] = fluorometholone 0.1 w/v % suspension
[5] = fluorometholone 0.1 w/v % suspension, MC
[6] = fluorometholone 0.1 w/v % suspension, PVP
[7] = fluorometholone 0.05 w/v % suspension, 0.0001 to 0.002 w/v % HPMC
[8] = fluorometholone 0.1 w/v % suspension, 0.000005 to 0.0001 w/v % HPMC
[9] = fluorometholone 0.1 w/v % suspension, 0.0001 to 0.01 w/v % HPMC
[10] = fluorometholone 0.1 w/v % suspension, 0.0003 to 0.002 w/v % PVP
[11] = fluorometholone 0.1 w/v % suspension, MC 0.0001 w/v % or less
[12] = indomethacin 0.2 w/v % suspension
[13] = indomethacin 1.0 w/v % suspension
[14] = indomethacin 0.2 w/v % suspension, HPMC below 0.0001 w/v %
[15] = indomethacin 1.0 w/v % suspension, HPMC less than 0.0005 w/v %

SMILES: CC(=O)[C@@]1(O)CC[C@H]2[C@@H]3C[C@H](C)C4=CC(=O)C=C[C@]4(C)[C@@]3(F)[C@@H](O)C[C@@]21C [fluorometholone]
- surface tension ([1]; fluorometholone 0.05 w/v % suspension, 0.0001 w/v % HPMC): 65.1 mN/m
- surface tension ([1]; fluorometholone 0.05 w/v % suspension, 0.001 w/v % PVP): 69.5 mN/m
- surface tension ([1]; fluorometholone 0.05 w/v % suspension, 0.002 w/v % HPMC): 50.5 mN/m
- HPMC concentration at which the decrease in surface tension almost ceased [1, 3]: 0.002 w/v %
- HPMC concentration at which the surface tension began to decline [1, 3]: 0.0001 w/v %
- PVP concentration at which the decrease in surface tension almost ceased ([1]; fluorometholone 0.05 w/v % suspension, PVP): 0.001 w/v %
- surface tension ([1]; fluorometholone 0.05 w/v % suspension, PVP at the concentration where the decline began (printed 0.0902 w/v % PVC)): 72.3 mN/m
- surface tension ([1]; fluorometholone 0.1 w/v % suspension, 0.002 w/v % PVP): 69.5 mN/m
- surface tension ([1]; fluorometholone 0.1 w/v % suspension, 0.01 w/v % MC): 54.5 mN/m
- HPMC concentration at which the decrease in surface tension almost ceased [1, 4]: 0.01 w/v
- HPMC concentration at which the surface tension began to decline [1, 4]: 0.0001 w/v %
- MC concentration at which the decrease in surface tension almost ceased [1, 5]: 0.01 w/v %
- MC concentration at which the surface tension began to decline [1, 5]: 0.0001 w/v %
- surface tension ([1]; fluorometholone 0.1 w/v % suspension, MC 0.0001 w/v % and below): ~72.5 mN/m
- PVP concentration at which the decrease in surface tension almost ceased [1, 6]: 0.002 w/v %
- PVP concentration at which the surface tension began to decline [1, 6]: 0.0003 w/v %
- surface tension ([1]; fluorometholone 0.1 w/v % suspension, PVP less than 0.0003 w/v %): ~72.5 mN/m
- condition of the dispersion [2, 7]: satisfactory
- time required for redispersion [2, 7]: about 6 seconds
- condition of the redispersed particles [2, 8]: the dispersed particles aggregated and floated, failing to give a uniform suspension
- time required for redispersion [2, 8]: 2 s
- condition of the redispersed particles [2, 9]: a uniform suspension was obtained without aggregation of suspended particles
- redispersion time [2, 9]: less than 4 seconds
- condition of the redispersed particles ([2]; fluorometholone 0.1 w/v % suspension, 0.0001 to 0.01 w/v % MC): redispersion taking place rapidly without aggregation of dispersed particles
- condition of the dispersion [2, 10]: satisfactory
- time necessary for redispersion [2, 10]: about 6 seconds
- redispersion time ([2]; fluorometholone 0.1 w/v % suspension, HPMC over 0.01 w/v %): exceeded 5 seconds
- condition of the redispersed particles [2, 11]: the dispersed particles aggregated and floated, failing to give a uniform suspension
- redispersion time [2, 11]: ≤ 2 s
- redispersion time ([2]; fluorometholone 0.1 w/v % suspension, MC over 0.01 w/v %): ~20 s
- redispersion time ([2]; fluorometholone 0.1 w/v % suspension, PVP in excess of 0.002 w/v %): ≥ 18 s

SMILES: COc1ccc2c(c1)c(CC(=O)O)c(C)n2C(=O)c1ccc(Cl)cc1 [indomethacin]
- surface tension ([1]; indomethacin 0.2 w/v % suspension, 0.01 w/v % HPMC): 48 mN/m
- HPMC concentration at which the decrease in surface tension almost ceased [1, 12]: 0.01 w/v %
- HPMC concentration at which the surface tension began to decline [1, 12]: 0.0001 w/v %
- surface tension ([1]; indomethacin 0.2 w/v % suspension, HPMC less than 0.0001 w/v %): ~72 mN/m
- surface tension ([1]; indomethacin 1.0 w/v % suspension, 0.005 w/v % HPMC): 49.7 mN/m
- HPMC concentration at which the decrease in surface tension almost ceased [1, 13]: 0.005 w/v %
- HPMC concentration at which the surface tension began to decline [1, 13]: 0.0005 w/v %
- surface tension ([1]; indomethacin 1.0 w/v % suspension, HPMC below 0.0005 w/v %): ~72.73 mN/m
- condition of the redispersed particles ([2]; indomethacin 0.2 w/v % suspension, 0.0001 to 0.01 w/v % HPMC): the drug being rapidly redispersed without aggregation
- condition of the redispersed particles [2, 14]: the dispersed particles aggregated and floated, failing to give a uniform suspension
- redispersion time [2, 14]: ≤ 7 s
- redispersion time ([2]; indomethacin 0.2 w/v % suspension, HPMC over 0.01 w/v %): exceeding 12 seconds
- condition of the redispersed particles ([2]; indomethacin 1.0 w/v % suspension, 0.0005 to 0.005 w/v % HPMC): the drug particles being rapidly redispersed without aggregation
- redispersion time ([2]; indomethacin 1.0 w/v % suspension, HPMC exceeded 0.005 w/v %): more than 20 seconds
- condition of the redispersed particles [2, 15]: the dispersed particles aggregated and floated, failing to give a uniform suspension
- redispersion time [2, 15]: not more than 7 seconds
